Measurements from US20180140537A1, “ACTIVE COMPLEX FOR A COSMETIC PRODUCT AGAINST SKIN AGEING” (priority 2014, published 2018).

Experiments:
[1] = tested on: human keratinocyte cells (HaCaT line) and fibroblasts
Procedure: For each of the substances above, the maximum non-cytotoxic doses were determined, corresponding to cell viability ≥90% (hereafter “NCD”). Cell viability was evaluated by a neutral red test (NR) on human keratinocyte cells (HaCaT line) and on fibroblasts described hereafter after contact for 48 h. The substances were poured into the culture medium DMEM+10% FCS.

HaCaT keratinocytes = assay: DCFH assay: UV-B-induced intracellular ROS (epidermal anti-oxidant potential, AOE); format: cell-based, human; details: for AOE, % reduction of [ROSUV]: vs (+) UV control
Source text: 3.1.1) The principle of the assay is based on the measurement of the intracellular oxidation level by means of the probe: 2′,7′-dichloro-dihydrofluorescein diacetate (DCFH-DA). Non-fluorescent DCFH-DA penetrates by passive diffusion into the cells. After cleavage of the acetate groups by the esterases, DCFH accumulates at the cytosol. The oxidation of DCFH by the reactive oxygen species (ROS: “Reactive Oxidative Species”) leads to the formation of a fluorescent compound. The DCF fluorescence intensity gives the possibility of evaluating the oxidation level of the cells subject to an oxidative stress.
More specifically, the measurement of the fluorescence intensities of DCF gives the possibility of evaluating the oxidation level of the cells subject to an oxidative stress. The DCFH assay detects a large range of ROSes: hydroxyl peroxyl and other ROSes (Fluorescence probes used for detection of reactive oxygen species, A. Gomes et al., J. Biochem. Biophys. Methods, 65:45-80; 2005).
HaCaT keratinocytes cultivated in a mono-layer are detached by trypsinization. The cell suspension is sown in 24-well plates.
2 plates are sown in parallel: 1 plate [DCFH] (measurement of DCFH fluorescence) and 1 plate [Prot] (measurement of cell proteins).
The plates [DCFH] and [Prot] are treated in parallel, in an identical way, according to the following experimental procedure.
72 hours after sowing, the culture medium is removed and replaced with fresh medium containing the assay element. The cells are replaced at 37° C. and incubated for 24 hours, in an air-CO2 atmosphere (95%/5%). After incubation with the assay element, the cells are rinsed with HBSS (a so called Hanks solution) and then exposed to UV-B (Philips TL-K 40 W ACTINIC BL REFLECTOR tubes) through the HBSS. The cells were treated with the various assayed complexes before (24 h) and after (24 h) irradiation with UV-B for about 30 minutes at 20 mJ/cm^2.
After irradiation, the HBSS is replaced with fresh medium containing the assay element. The cells are replaced at 37° C. for 24 h in an air-CO2 atmosphere (95%/5%). At the end of the assay, the [DCFH] and [Prot] plates are treated, in the following way:
The [DCFH] plates are emptied and rinsed with PBS. The cells are then incubated at 37° C., in the presence of a DCFH-DA solution. After incorporating the probe, the cells are rinsed with PBS. An extraction buffer (Triton X-100 1%) is added into each well. After 45 mins of incubation, the lyzates are sampled, transferred into 96-well plates. The fluorescence intensities (λExc: 485 nm, λEm: 535 nm) are expressed in relative fluorescence units (RFU).
A dosage of the proteins (BCA protein assay) is carried out in parallel in order to correct the [DCFH] values (RFU/well) according to the cell protein level (pg/well) in order to do without a variation in the number of cells related to an effect of the assay element on cell growth.
The assay was carried out on HaCaT keratinocytes (HaCaTp91 strain) cultivated in a [DMEM+1% FCS] medium. The intracellular oxidation level was measured after treatment and irradiation of the cells.
The intracellular oxidation level (F.R.U/well: relative fluorescence unit) recorded at the control and treated cultures was corrected according to the average cell protein level (μg/well). The values [DCFH] are expressed in arbitrary units (from the optical densities): [DCFH]=(F.R.U/μg prot.).
Assay conditions: • 1. Pretreating the cells for 24 h, with the assay elements, before irradiation of the cells, • 2. Exposure of the cells to UV-B (20 mJ/cm^2), in the absence of the assay elements, • 3. Incubation of the irradiated cells for 24 h, in the presence of the assay elements, • 4. Quantification of the intracellular oxidation level (ROS) by measuring the fluorescence of DCFH.
The intracellular oxidation level (RFU/well) recorded at the control and treated cultures were corrected according to the average level of cell proteins (μg/well). […]

MMP-1 = MMP-1 ELISA on UV-A irradiated fibroblasts (DPM); format: cell-based, human; details: for DPM, % reduction of MMP-1 / [MMP-1]: VE 1 mM; for [MMP-1]: (+) UV-A, corrected for cell proteins
Procedure: (§1) 3.2.1) The principle of the assay is based on the evaluation of 2 parameters—neosynthesis of collagen I and production of MMP-1—on human fibroblasts [NHDF] cultivated in the absence or in the presence of the assay element, and stimulated by UV-A.
(§2) The level of procollagen I is quantified by assaying [PIP] (procollagen of the I peptide type) in incubation media by means of an ELISA assay. The measurement of the MMP-1 level is conducted on the incubation media by means of an ELISA assay.
(§3) Fibroblasts [NHDF] are detached from their support by trypsinization. After counting, the cell suspension is sown in 24-well plates in an amount of 1.10^5 cells/well, in a [D-MEM+10% FCS] medium.
(§4) After 24 h of incubation, the culture medium is removed and replaced with fresh medium supplemented with 1% of FCS, without any ascorbic acid and containing the product(s) to be investigated. The cells are replaced in the oven and incubated for 24 h, in an air-CO2 atmosphere (95%/5%).
(§5) After incubation with test solutions, the cells are rinsed with HBSS and then exposed to UV-A (Philips TL-K 40 W ACTINIC BL REFLECTOR tubes) through HBSS. The UV-A irradiation is of about 10 J/cm^2 for 1 h. After irradiation, the HBSS is replaced with fresh medium containing the assay element.
(§6) The cells are replaced at 37° C. and incubated for 24 h. At the end of the assay, the incubation media of the cultures are sampled and frozen at −20° C. while awaiting the assaying of procollagen I and of MMP-1.
(§7) In parallel, the cell mats are rinsed with HBSS and treated for an assay of cell proteins (BCA protein assay). A (0.1N) NaOH solution is added into each well. After incubation, the extracts are sampled and transferred into a 96-well plate. 200 μl of BCA reagent are added into each well. After incubation, the absorbance (optical density) is measured at 570 nm with a microplate reader.
The MMP-1 activity is measured with an ELISA assay (Human Active MMP-1 from R&D Systems® laboratories, FRANCE) for detecting and quantifying by fluorescence the MMP-1 activity.
(§8) In both cases, the quantification of the fluorescence is accomplished in the culture supernatants, according to the instructions provided by the R&D Systems® laboratories, France, the absorbance being measured at 450 nm.
(§9) The assay was carried out on [NHDF] (F06.2H7 strain) fibroblasts cultivated in a [DMEM+1% FCS] medium, in the absence of sodium ascorbate.
(§10) The levels of procollagen I and of MMP-1 were measured in the supernatants of the cultures after treatment and irradiation of the cells.
(§11) The NHDF cells were treated with the assay complexes CAAL-2, CAAL-3 and CAAL-4, before (24 h) and after (24 h) UVA irradiation.
(§12) The concentrations of procollagen I [PIP] c-terminal peptide and of metalloproteinase-1 [MMP-1] in the different samples (ng/ml) were corrected according to the protein concentrations of the corresponding wells.
DPM=% of reduction in metalloproteinase-1 after treatment of NHDF fibroblasts with UVs in the presence of the complex according to the invention relatively to a control having been subject to a same UV treatment in the absence of an assay complex according to the present invention or other.
(§13) Assay conditions: • 1. Treating the cells, for 24 h, with the assay elements, before irradiation of the cells, • 2. Exposure of the cells to UV-As, in the absence of the assay elements, • 3. Incubation of the irradiated cells for 24 h, in the presence of the assay elements, • 4. Quantification of the levels of pro-collagen I ([PIP] assay) and of MMP-1 in the incubation media.
(§14) Results: The [PIP] and [MMP] values recorded at the control and treated cultures were corrected according to the average level of cell proteins (μg/well).
MMP-1 production: assay of MMP-1 in the incubation media by an Elisa assay.

[2] = tested on: HaCaT keratinocytes and NHDF fibroblasts; assay: Skin anti-ageing potential index AAC = AOE + 1/2 DPC + 1/2 DPM; design: species or system human; details: Example 1; AOE+½DPC+½DPM
Procedure: An anti-age activity index designated as “AAC” was determined according to the present invention, which is a quantitative parameter of the anti-ageing skin potential of a test element taking into account a protective effect at the epidermis by integrating an epidermal anti-oxidant effect score and a protective effect at the dermis by integrating a dermo-protective effect score towards the synthesis of collagen, a main marker of the dermal extracellular matrix (ECM) and/or towards the degradation of metalloproteinase-1 (MMP-1) which is a collagenase enzyme produced by the fibroblasts of the dermis degrading the dermal extracellular matrix (ECM). Still more specifically, a capability is sought for opposing the reduction of collagen synthesis following UV stress and opposing the increase in the production of metalloproteinase-1 for ensuring dermal homeostasis.
More specifically, according to the present invention, an AAC potential is defined as follows:
[AOE]: % of epidermal anti-oxidant potential as defined hereafter.
[DPC.]: % of dermo-protective collagen potential as defined hereafter.
[DPM]: % of dermo-protective MMP1 potential as defined hereafter.
The skin anti-ageing potential ([AAC]) was calculated from the experimental data according to:
[A.A.C]=[AOE]+½.[DPC]+½.[DPM]

procollagen I = assay: Procollagen I [PIP] ELISA on UV-A irradiated fibroblasts (DPC); format: cell-based, human
Procedure: as §1, §2, §3, §4, §5, §6, §7
The assay of the procollagen I in the samples is carried out with an ELISA assay (Procollagen Type I C-Peptide EIA Kit from R&D Systems® laboratories, France) for detecting and quantifying by fluorescence the C-terminal peptide of human procollagen I.
as §8, §9, §10, §11, §12
DPC=% of increase in collagen after treatment of the NHDF fibroblast cells with UV in the presence of the complex according to the invention relatively to a control having been subject to a same UV treatment in the absence of the assay complex according to the present invention or other; and
as §13, §14
Synthesis of procollagen I: assay of the [PIP] (procollagen of the type I peptide) assay in the incubation media.

[3] = Example 1, NHDF, vs (+) UV control
[4] = Example 1, NHDF, vs (+) UV control, ASC 50 μg/ml
[5] = Example 1, relative to (+) UV control 2 = 100%
[6] = Example 2, NHDF, vs (+) UV control

For sodium hyaluronate [SODIUM H[…]], the “NCD (%) by weight (maximum non-cytotoxic dose)” value [1] was 0.2% by weight.

With `O=C1O[C@H]([C@@H](O)CO)C([O-])=C1O.[Na+]` [ASC, sodium ascorbate] the “AOE, % reduction of [ROSUV]” value (HaCaT keratinocytes; Example 1, VE 1 mM) was 0%, the “DPM, % reduction of MMP-1” value (MMP-1; [3]) was 0% and the “AAC skin anti-ageing potential” value [2] was 71.5%. For the same compound, the “DPC, % increase in collagen” value (procollagen I; [4]) was 143%, the “[PIP] (%)” value (procollagen I; [5]) was 243% and the “[PIP] % of (+) UV control” value (procollagen I; Example 2) was 243%. The “[PIP]” value (procollagen I; Example 2, NHDF, (+) UV-A, corrected for cell proteins, ASC 50 μg/ml) was 3.79 +/− 0.04 and the “DPC dermo-protective collagen potential” value (procollagen I; [6]) was “capable of restoring neosynthesis of collagen I depressed by UVs”.

For `Cc1c(C)c2c(c(C)c1O)CC[C@@](C)(CCC[C@H](C)CCC[C@H](C)CCCC(C)C)O2` [VE, α-tocopherol], the “DCFH ASSAY intracellular oxidation level [DCFH]” value (HaCaT keratinocytes; Example 1, HaCaT, (+) UV-B 20 mJ/cm2, treated 24 h before and 24 h after, complexes at Table I conc., VE 1 mM, average +/- SD, n=3) was 35.72 +/− 2.66 F.R.U/μg prot, the “UV-induced ROS” value (HaCaT keratinocytes; Example 1, [DCFH] minus non-irradiated control 1) was 22.92 F.R.U/μg prot and the “UV-induced ROS (%)” value (HaCaT keratinocytes; [5]) was 19%. The “AOE, % reduction of [ROSUV]” value (HaCaT keratinocytes; Example 1, VE 1 mM) was 81%, the “UV-induced ROS (DCFH minus non-irradiated control)” value (HaCaT keratinocytes; Example 2) was 16.38 RFU/μg prot and the “DCFH [ROS] intracellular oxidation level” value (HaCaT keratinocytes; Example 2, HaCaT, (+) UV-B 20 mJ/cm2, DMEM+FCS(1%), average +/- SD, n=3) was 28.03 +/− 1.12 RFU/μg prot. The “UV-induced ROS (%)” value (HaCaT keratinocytes; Example 2, relative to (+) UV control = 100%) was 12%, the “AOE anti-oxidant epidermal potential, % reduction of [ROSUV]” value (HaCaT keratinocytes; Example 2, vitamin E 1 mM) was 88% and the “[MMP-1]” value (MMP-1; Example 1, NHDF, average +/- SD, n=3) was 0.172+/— ng/ml. The “DPM, % reduction of MMP-1” value (MMP-1; [3]) was 31%, the “[MMP-1] (%)” value (MMP-1; [5]) was 69% and the “[MMP-1] % of (+) UV control” value (MMP-1; Example 2) was 62%. The “[MMP-1]” value (MMP-1; Example 2, NHDF) was 0.198 +/− 0.006, the “DPM dermo-protective MMP1 potential, % reduction of MMP-1” value (MMP-1; [6]) was 38% and the “AAC skin anti-ageing potential” value [2] was 96.5%. The “DPC, % increase in collagen” value (procollagen I; [4]) was 0%.
